# Patent US11999752B2, “Vinyl imidazole compounds as inhibitors of KRAS” (Incyte Corporation, priority 2020, dated 2024)
# Read-outs that look alike come from different tables or passages of the source.
# Columns and labels:
# KRAS G12C = KRAS G12C (Homo sapiens, UniProt P01116, G12C); assay: GDP-GTP exchange assay (fluorescence based guanine nucleotide exchange, bodipy-GDP for GppNHp, SOS1); type: biochemical; details: bodipy-loaded KRAS G12C 2.5 nM, GppNHp 500 uM, SOS1 150 nM; 2 hours pre-incubation with inhibitor; read-out: G12C_exchange IC50
# Procedure: Example A. GDP-GTP Exchange Assay.
# The inhibitor potency of the exemplified compounds was determined in a fluorescence based guanine nucleotide exchange assay, which measures the exchange of bodipy-GDP (fluorescently labeled GDP) for GppNHp (Non-hydrolyzable GTP analog) to generate the active state of KRAS in the presence of SOS1 (guanine nucleotide exchange factor). Inhibitors were serially diluted in DMSO and a volume of 0.1 μL was transferred to the wells of a black low volume 384-well plate. 5 μL/well volume of bodipy-loaded KRAS G12C diluted to 5 nM in assay buffer (25 mM Hepes pH 7.5, 50 mM NaCl, 10 mM MgCl2 and 0.01% Brij-35) was added to the plate and pre-incubated with inhibitor for 2 hours at ambient temperature. Appropriate controls (enzyme with no inhibitor or with a G12C inhibitor (AMG -510)) were included on the plate. The exchange was initiated by the addition of a 5 μL/well volume containing 1 mM GppNHp and 300 nM SOS1 in assay buffer. The 10 μL/well reaction concentration of the bodipy-loaded KRAS G12C, GppNHp, and SOS1 were 2.5 nM, 500 uM, and 150 nM, respectively. The reaction plates were incubated at ambient temperature for 2 hours, a time estimated for complete GDP-GTP exchange in the absence of inhibitor. For the KRAS G12D and G12V mutants, similar guanine nucleotide exchange assays were used with 2.5nM as final concentration for the bodipy loaded KRAS proteins and with 4 hours and 3 hours incubation after adding GppNHp-SOS1 mixture for G12D and G12V respectively. A cyclic peptide described to selectively bind G12D mutant (Sakamoto et al., BBRC 484.3 (2017), 605-611) or internal compounds with confirmed binding were used as positive controls in the assay plates. Fluorescence intensities were measured on a PheraStar plate reader instrument (BMG Labtech) with excitation at 485 nm and emission at 520 nm.
# Either GraphPad prism or XLfit was used to analyze the data. The IC50 values were derived by fitting the data to a four parameter logistic equation producing a sigmoidal dose -response curve with a variable Hill coefficient. Y=Bottom+(Top−Bottom)/(1+10^((LogIC50−X)*Hill slope)); XLfit equation: Y=(A+((B−A)/(1+((X/C)^D)))) where X is the logarithm of inhibitor concentration and Y is the response. Prism equation: […]
# [1] = tested on: MIA PaCa-2 (KRAS G12C) cells; assay: Cellular pERK HTRF assay; type: cell-based, human; details: KRAS_G12C pERK assay, cells incubated with compounds 4 hours, read-out: G12C_pERK IC50
# Procedure: Example C: Cellular pERK HTRF Assay
# MIA PaCa-2 (KRAS G12C; ATCC® CRL-1420), A427 (KRAS G12D; ATCC® HTB53), HPAF-II (KRAS G12D; ATCC® CRL-1997) and NCI-H838 (KRAS WT; ATCC® CRL-5844) cells are purchased from ATCC and maintained in RPMI 1640 media supplemented with 10% FBS (Gibco/Life Technologies). The cells are plated at 5000 cells per well (8 uL) into Greiner 384-well low volume, flat-bottom, tissue culture treated white plates and incubated overnight at 37° C., 5% CO2. The next morning, test compound stock solutions are diluted in media at 3× the final concentration, and 4 uL are added to the cells. The plate is mixed by gentle rotation for 30 seconds (250rpm) at room temperature. The cells are incubated with the KRAS G12C and G12D compounds for 4 hours or 2 hours respectively at 37° C., 5% CO2.
# 4 uL of 4× lysis buffer with blocking reagent (1:25) (Cisbio) are added to each well and plates are rotated gently (300 rpm) for 30 minutes at room temperature. 4 uL per well of Cisbio anti Phospho-ERK 1/2 d2 is mixed with anti Phospho-ERK 1/2 Cryl)tate (1:1) are added to each well, mixed by rotation and incubated overnight in the dark at room temperature. Plates are read on the Pherastar plate reader at 665 nm and 620 nm wavelengths. IC50 determination is performed by fitting the curve of inhibitor percent inhibition versus the log of the inhibitor concentration using the GraphPad Prism 7 software.
Molecule,IC50 (KRAS G12C) [µM],"IC50 ([1]; Homo sapiens, MIA PaCa-2) [µM]",IC50 [1] [µM]
"4-(1-cyclopropyl-3-vinyl-5,6-dihydroimidazo[1,5-a]pyrazin-7(8H)-yl)-7-(2-fluoro-6-hydroxyl)henyl)-1-(2-isopropyl-4-methylpyridin-3-yl)quinazolin-2(1H)-one [Example 8]",0.1 to 1,–,–
"C=Cc1ncc2n1CCN(c1nc(OCC3CCCN3C)nc3c(F)c(-c4cc(O)cc5ccccc45)c(Cl)cc13)C2 (racemic) [Example 11, 4-(6-chloro-8-fluoro-2-((1-methylpyrrolidin-2-yl)methoxy)-4-(3-vinyl-5,6-dihydroimidazo[1,5-a]pyrazin-7(8H)-yl)quinazolin-7-yl)naphthalen-2-ol]",≤ 0.1,1 to 5,–
"C=Cc1ncc2n1CCN(c1nc(=O)n(-c3c(C)ccnc3C(C)C)c3nc(-c4c(O)cccc4F)c(F)cc13)C2 (single isomer, unassigned) [Example 1]",0.1 to 1,5 to 10,–
"C=Cc1ncc2n1CCN(c1nc(=O)n(-c3c(C)ccnc3C(C)C)c3nc(-c4c(O)cccc4F)c(F)cc13)C2 (single isomer, unassigned) [Example 2]",0.1 to 1,–,5 to 10
C=Cc1ncc2n1CCN(c1nc(=O)n(CC3CC3)c3nc(-c4c(O)cccc4F)c(F)cc13)C2 [Example 3],0.1 to 1,5 to 10,–
C=Cc1ncc2n1CCN(c1nc(=O)n(C(C)C)c3nc(-c4c(O)cccc4F)c(F)cc13)C2 [Example 4],0.1 to 1,5 to 10,–
C=Cc1ncc2n1CCN(c1nc(=O)n(CCOC)c3nc(-c4c(O)cccc4F)c(F)cc13)C2 [Example 5],1 to 5,–,–
Cc1ccnc(C(C)C)c1-n1c(=O)nc(N2CCn3c(cnc3/C=C/c3cc(F)cc(F)c3)C2)c2cc(F)c(-c3c(O)cccc3F)nc21 [Example 6],1 to 5,–,–
Cc1ccnc(C(C)C)c1-n1c(=O)nc(N2CCn3c(cnc3/C=C/c3ccc(F)cc3F)C2)c2cc(F)c(-c3c(O)cccc3F)nc21 [Example 7],1 to 5,–,–
C=Cc1nc(CN2CC(C(F)(F)F)C2)c2n1CCN(c1nc(=O)n(-c3c(C)ccnc3C(C)C)c3nc(-c4c(O)cccc4F)c(F)cc13)C2 [Example 9],1 to 5,–,–
C=Cc1nc(CN(C)CC#N)c2n1CCN(c1nc(=O)n(-c3c(C)ccnc3C(C)C)c3nc(-c4c(O)cccc4F)c(F)cc13)C2 [Example 10],1 to 5,–,–

# Other lines, results leading:
IC50 (KRAS G12C) [µM],"IC50 ([1]; Homo sapiens, MIA PaCa-2) [µM]",IC50 [1] [µM],Molecule
0.1 to 1,5 to 10,–,"C=Cc1ncc2n1CCN(c1nc(OCC3CCCN3C)nc3c(F)c(-c4c(O)cccc4F)c(Cl)cc13)C2 (racemic) [Example 12, 2-(6-chloro-8-fluoro-2-((1-methylpyrrolidin-2-yl)methoxy)-4-(3-vinyl-5,6-dihydroimidazo[1,5-a]pyrazin-7(8H)-yl)quinazolin-7-yl)-3-fluorophenol]"
0.1 to 1,5 to 10,–,"C=Cc1ncc2n1CCN(c1nc(OCC3CCCN3C)nc3c(F)c(-c4c(C)ccc5[nH]ncc45)c(Cl)cc13)C2 (racemic) [Example 13, 6-chloro-8-fluoro-7-(5-methyl-1H-indazol-4-yl)-2-((1-methylpyrrolidin-2-yl)methoxy)-4-(3-vinyl-5,6-dihydroimidazo[1,5-a]pyrazin-7(8H)-yl)quinazoline]"
0.1 to 1,5 to 10,–,"C=Cc1ncc2n1CCN(c1nc(OC3CCCN(C)C3)nc3c(F)c(-c4cc(O)cc5ccccc45)c(Cl)cc13)C2 (racemic) [Example 18, 4-(6-chloro-8-fluoro-2-((1-methylpiperidin-3-yl)oxy)-4-(3-vinyl-5,6-dihydro-imidazo[1,5-a]pyrazin-7(8H)-yl)quinazolin-7-yl)naphthalen-2-ol]"
0.1 to 1,1 to 5,–,"C=Cc1ncc2n1CCN(c1nc(OCCN(C)C)nc3c(F)c(-c4cc(O)cc5ccccc45)c(Cl)cc13)C2 [Example 14, 4-(6-chloro-2-(2-(dimethylamino)ethoxy)-8-fluoro-4-(3-vinyl-5,6-dihydroimidazo[1,5-a]pyrazin-7(8H)-yl)quinazolin-7-yl)naphthalen-2-ol]"
0.1 to 1,5 to 10,–,"C=Cc1ncc2n1CCN(c1nc(OC3CCN(C)CC3)nc3c(F)c(-c4cc(O)cc5ccccc45)c(Cl)cc13)C2 [Example 15, 4-(6-chloro-8-fluoro-2-((1-methylpiperidin-4-yl)oxy)-4-(3-vinyl-5,6-dihydroimidazo[1,5-a]pyrazin-7(8H)-yl)quinazolin-7-yl)naphthalen-2-ol]"
0.1 to 1,5 to 10,–,"C=Cc1ncc2n1CCN(c1nc(OCCN3CCOCC3)nc3c(F)c(-c4cc(O)cc5ccccc45)c(Cl)cc13)C2 [Example 16, 4-(6-chloro-8-fluoro-2-(2-morpholinoethoxy)-4-(3-vinyl-5,6-dihydroimidazo-[1,5-a]pyrazin-7(8H)-yl)quinazolin-7-yl)naphthalen-2-ol]"
0.1 to 1,1 to 5,–,"C=Cc1ncc2n1CCN(c1nc(OC[C@@H]3CCCN3C)nc3c(F)c(-c4cc(O)cc5ccccc45)c(Cl)cc13)C2 [Example 17, 4-(6-chloro-8-fluoro-2-(((S)-1-methylpyrrolidin-2-yl)methoxy)-4-(3-vinyl-5,6-dihydroimidazo[1,5-a]pyrazin-7(8H)-yl)quinazolin-7-yl)naphthalen-2-ol]"
0.1 to 1,1 to 5,–,"C=Cc1ncc2n1CCN(c1nc(N3CC(N(C)C)C3)nc3c(F)c(-c4cc(O)cc5ccccc45)c(Cl)cc13)C2 [Example 19, 4-(6-chloro-2-(3-(dimethylamino)azetidin-1-yl)-8-fluoro-4-(3-vinyl-5,6-dihydroimidazo[1,5-a]pyrazin-7(8H)-yl)quinazolin-7-yl)naphthalen-2-ol]"
